Measured values published in ChEMBL document CHEMBL1154851, “Synthesis, antibacterial and antifungal activities of 6,5 fused steroidal oxazoles in cholestane series” (2010).
Values after ≈ are worked out from the molar mass of the structure shown.

Tests used:
[1] = tested on: Bacillus subtilis; assay: Antimicrobial activity against Bacillus subtilis after 18 hrs by disk diffusion method; format: functional
[2] = tested on: Streptococcus pyogenes; assay: Antimicrobial activity against Streptococcus pyogenes after 18 hrs by macrodilution test; format: functional
[3] = tested on: Bacillus subtilis; assay: Antimicrobial activity against Bacillus subtilis after 18 hrs by macrodilution test; format: functional
[4] = tested on: Staphylococcus aureus; assay: Antimicrobial activity against Staphylococcus aureus after 18 hrs by disk diffusion method; format: functional
[5] = tested on: Streptococcus pyogenes; assay: Antimicrobial activity against Streptococcus pyogenes after 18 hrs by disk diffusion method; format: functional
[6] = tested on: Salmonella enterica; assay: Antimicrobial activity against Salmonella Typhimurium after 18 hrs by macrodilution test; format: functional, Salmonella enterica subsp. enterica serovar Typhimurium
[7] = tested on: Staphylococcus aureus; assay: Antimicrobial activity against Staphylococcus aureus after 18 hrs by macrodilution test; format: functional
[8] = tested on: Salmonella enterica; assay: Antimicrobial activity against Salmonella Typhimurium after 18 hrs by disk diffusion method; format: functional, Salmonella enterica subsp. enterica serovar Typhimurium
[9] = tested on: Pseudomonas aeruginosa; assay: Antimicrobial activity against Pseudomonas aeruginosa after 18 hrs by macrodilution test; format: functional
[10] = tested on: Pseudomonas aeruginosa; assay: Antimicrobial activity against Pseudomonas aeruginosa after 18 hrs by disk diffusion method; format: functional
[11] = tested on: Escherichia coli; assay: Antimicrobial activity against Escherichia coli after 18 hrs by macrodilution test; format: functional
[12] = tested on: Escherichia coli; assay: Antimicrobial activity against Escherichia coli after 18 hrs by disk diffusion method; format: functional
[13] = tested on: Aspergillus niger; assay: Antimicrobial activity against Aspergillus niger at 100 ug/ml after 48 hrs by disk diffusion method; format: functional; settings: read-out: DIZ
[14] = tested on: Penicillium; assay: Antimicrobial activity against Penicillium at 100 ug/ml after 48 hrs by disk diffusion method; format: functional; settings: read-out: DIZ
[15] = tested on: Nakaseomyces glabratus; assay: Antimicrobial activity against Candida glabrata at 100 ug/ml after 48 hrs by disk diffusion method; format: functional; settings: read-out: DIZ
[16] = tested on: Fusarium oxysporum; assay: Antimicrobial activity against Fusarium oxysporum at 100 ug/ml after 48 hrs by disk diffusion method; format: functional; settings: read-out: DIZ
[17] = tested on: Candida albicans; assay: Antimicrobial activity against Candida albicans at 100 ug/ml after 48 hrs by disk diffusion method; format: functional; settings: read-out: DIZ
[18] = tested on: Nakaseomyces glabratus; assay: Antimicrobial activity against Candida glabrata at 30 ug after 48 hrs by disk diffusion method; format: functional, organism-based
[19] = tested on: Aspergillus niger; assay: Antimicrobial activity against Aspergillus niger at 30 ug after 48 hrs by disk diffusion method; format: functional, organism-based
[20] = tested on: Penicillium; assay: Antimicrobial activity against Penicillium at 30 ug after 48 hrs by disk diffusion method; format: functional, organism-based
[21] = tested on: Candida albicans; assay: Antimicrobial activity against Candida albicans at 30 ug after 48 hrs by disk diffusion method; format: functional, organism-based
[22] = tested on: Fusarium oxysporum; assay: Antimicrobial activity against Fusarium oxysporum at 30 ug after 48 hrs by disk diffusion method; format: functional, organism-based

Molecule	inhibition zone (IZ) [1]	MIC [2]	MIC [3]	inhibition zone (IZ) [4]	inhibition zone (IZ) [5]	MIC [6]	MIC [7]	inhibition zone (IZ) [8]	MIC [9]	inhibition zone (IZ) [10]	MIC [11]	inhibition zone (IZ) [12]	zone of inhibition at 100 µg/mL [13]	zone of inhibition at 100 µg/mL [14]	zone of inhibition at 100 µg/mL [15]	zone of inhibition at 100 µg/mL [16]	zone of inhibition at 100 µg/mL [17]	also measured
O=C(N[C@H](CO)[C@H](O)c1ccc([N+](=O)[O-])cc1)C(Cl)Cl [CHLORAMPHENICOL]	26.8 mm	32 µg/mL (≈ 99 µM)	32 µg/mL (≈ 99 µM)	21 mm	22.4 mm	32 µg/mL (≈ 99 µM)	32 µg/mL (≈ 99 µM)	25.2 mm	32 µg/mL (≈ 99 µM)	17.1 mm	32 µg/mL (≈ 99 µM)	20 mm	–	–	–	–	–	–
CC(C)CCC[C@@H](C)[C@H]1CC[C@H]2[C@@H]3C=C4N=C(N)O[C@@]45C[C@@H](Cl)CC[C@]5(C)[C@H]3CC[C@]12C	15.2 mm	128 µg/mL (≈ 278 µM)	64 µg/mL (≈ 139 µM)	15.1 mm	15.1 mm	64 µg/mL (≈ 139 µM)	64 µg/mL (≈ 139 µM)	14.1 mm	64 µg/mL (≈ 139 µM)	16.5 mm	128 µg/mL (≈ 278 µM)	16.1 mm	12.5 mm	16.2 mm	15.2 mm	13.1 mm	21.5 mm	–
CC(=O)O[C@H]1CC[C@]2(C)[C@H]3CC[C@]4(C)[C@@H]([C@H](C)CCCC(C)C)CC[C@H]4[C@@H]3C=C3N=C(N)O[C@@]32C1	13.1 mm	128 µg/mL (≈ 264 µM)	32 µg/mL (≈ 66 µM)	12.8 mm	12.5 mm	128 µg/mL (≈ 264 µM)	128 µg/mL (≈ 264 µM)	13.2 mm	64 µg/mL (≈ 132 µM)	15 mm	128 µg/mL (≈ 264 µM)	14.1 mm	11.2 mm	15.1 mm	10.1 mm	12.1 mm	20.1 mm	–
NYSTATIN	–	–	–	–	–	–	–	–	–	–	–	–	–	–	–	–	–	inhibition zone (IZ) [18]: 29 mm; inhibition zone (IZ) [19]: 19.5 mm; inhibition zone (IZ) [20]: 24.5 mm; inhibition zone (IZ) [21]: 29 mm; inhibition zone (IZ) [22]: 19.5 mm
CC(C)CCC[C@@H](C)[C@H]1CC[C@H]2[C@@H]3C=C4N=C(N)O[C@@]45CCCC[C@]5(C)[C@H]3CC[C@]12C	12.1 mm	256 µg/mL (≈ 600 µM)	128 µg/mL (≈ 300 µM)	10.8 mm	11.2 mm	128 µg/mL (≈ 300 µM)	128 µg/mL (≈ 300 µM)	11.5 mm	128 µg/mL (≈ 300 µM)	13.5 mm	256 µg/mL (≈ 600 µM)	13.1 mm	10.1 mm	14.5 mm	9.2 mm	10.1 mm	19.1 mm	–
